In patent US12036194B1, “Methods of administering solriamfetol to lactating women” (Axsome Malta Ltd., priority 2022, dated 2024):
Where a name gives a salt, the structure may show the parent alone. Read-outs that look alike come from different tables or passages of the source.

Legend:
[1] = rats; breast milk; cited from earlier work
[2] = cited from earlier work
[3] = Sunosi label, cited from earlier work
[4] = Phase 4 open-label single-dose study: pharmacokinetics of solriamfetol in breast milk of healthy postpartum women; assay type: in vivo, human; settings: for Kp / AUC(0-inf) / AUC(0-t) / Cmax / half-life / Tmax: female, human, po, 150 mg; for Kp: breast milk / plasma
Procedure: A Phase 4, open-label, single-dose study to evaluate the pharmacokinetics (PK) of solriamfetol in the breast milk and plasma of healthy postpartum women following oral administration of a 150 mg solriamfetol tablet.
The study was conducted in 6 healthy adult lactating women who were between 15 and 37 weeks postpartum and were administered a single oral dose of SUNOSI 150 mg. SUNOSI was excreted in breast milk with a milk to plasma AUC ratio of approximately 2:1. […] The average amount that would be passed to the infant was estimated to be 0.59 mg over 24 hours, which is about 4.0% of the maternal dose on a weight-adjusted basis. The data from the lactation study indicate that SUNOSI is transferred to breastmilk in nursing mothers, with the relative infant dose (RID) is approximately 4% of the maternal weight-adjusted dosage. Data to assess the effects of SUNOSI on a breastfed infant or on milk production is not provided. The developmental and health benefits of breastfeeding should be considered along with the mother's clinical need for SUNOSI and any potential adverse effects on the breastfed child from SUNOSI or from the underlying maternal condition. Breastfed infants should be monitored for adverse reactions, such as agitation, insomnia, anorexia, and reduced weight gain.
On Day −1, eligible subjects underwent the baseline procedures. On Day 1, 2 hours after a light breakfast, subjects were to receive a single dose of solriamfetol 150 mg with 240 mL of water. Subjects had to fast for approximately 4 hours after the first dose; water was allowed except for 1 hour before and 1 hour after dosing with the study drug.
Pharmacokinetic analysis of breast milk obtained from both breasts (by pumping) was evaluated prior to dose administration and at intervals up to 72 hours postdose. Blood samples were also collected for plasma solriamfetol quantitation and PK analysis predose and at timepoints up to 72 hours postdose. Solriamfetol breast milk and plasma concentrations were measured using validated bioanalytical methods. Safety was assessed throughout the study by 12-lead ECG, vital sign measurements, the Columbia-Suicide Severity Rating Scale (C-SSRS), and the incidence of adverse events (AE).
Breast milk collection: Solriamfetol concentration in breast milk and plasma was evaluated based on samples collected prior to and postdose on Days 1 to 4. Breast milk was collected from both breasts, using electronic breast pumps, during the following intervals: From −2 to 0 at predose and at 0 to 2, 2 to 4, 4 to 8, 8 to 12, 12 to 18, 18 to 24, 24 to 32, 32 to 40, 40 to 48, and 48 to 72 hours postdose on Day 1. The midpoint of each breast milk collection interval was used as the time variable.
Breast milk was collected as often as needed during the assigned intervals; however, at the end of each interval, breast milk was pumped from both breasts and collected. At the end of each collection interval, all milk expressed from both breasts during that interval was pooled. The milk was thoroughly mixed by gently inverting the collection vessel 10 times to ensure homogeneity in milk composition. The weight and volume of the collected milk during each interval was also recorded.
Serial blood samples (4 mL) were collected and dispensed into labeled K2EDTA tubes. The actual time of blood collection for all samples was recorded on the eCRF. Solriamfetol concentration in breast milk and plasma were determined using a validated bioanalytical method (LC-MS/MS) at Origin Bioanalytical Laboratory. The analytical range (lower limit of quantitation [LLOQ] to upper limit of quantitation) for plasma solriamfetol was 8.42 to 4210.00 ng/mL, and breast milk solriamfetol was 10.0 to 8000 ng/mL.
Pharmacokinetic parameters were derived with Phoenix® WinNonlin® Version 8.3 (Certara, Inc., Princeton, New Jersey, USA) and/or SAS© Version 9.4 (SAS Institute, Inc., Cary, North Carolina, USA). […]

[5] = healthy male and female patients not postpartum
[6] = breast milk, single oral 150 mg solriamfetol tablet, N = 6, hydrochloride
[7] = breast milk, single oral 150 mg, N = 6
[8] = breast milk, single oral 150 mg, N = 6, hydrochloride
[9] = breast milk, single oral 150 mg, N = 6, listed as solriamfetol, hydrochloride
[10] = over 72 hours, single oral 150 mg

In the case of `NC(=O)OC[C@H](N)Cc1ccccc1` [Solriamfetol, (R)-2-amino-3-phenylpropyl carbamate (APC) hydrochloride], the “solriamfetol milk concentrations versus plasma concentrations” value [1] is listed as “higher than”, the “PK in fed versus fasted subjects” value ([2]; fed versus fasted) is listed as “satisfied the criteria for bioequivalence” and the systemic elimination half-life ([2]; in vivo) is listed as 5.0 to 7.6 h. The estimated accumulation ratio ([2]; once daily dosing) was 1.06, the “apparent mean elimination plasma half-life” value [3, 5] was 7.1 h and the oral bioavailability [3, 5] was “approximately 95%”. The “median Tmax of peak plasma concentration” value ([3]; post-dose under fasted conditions, not postpartum) was 2 h, the “Milk:Plasma Ratio, Arithmetic Mean (CV %)” value ([4]; AUC in breast milk divided by AUC in plasma, single oral 150 mg, N = 6) was 2.136 (35.8) and the “time by which near complete excretion in breast milk was observed” value ([4]; after dosing, single oral 150 mg) was at most 24 h. For the same compound, the “Amilk, Geometric Mean” value ([4]; amount excreted in breast milk over 72 hours, single oral 150 mg, N = 6) was 0.5651 mg, the “Amilk, Arithmetic Mean (CV %)” value ([4]; amount excreted in breast milk over 72 hours, single oral 150 mg, N = 6, hydrochloride) was 0.6880 (67.9) mg and the “Amilk, Arithmetic Mean (CV %)” value ([4]; amount excreted in breast milk over 72 hours, single oral 150 mg, N = 6, listed as solriamfetol, hydrochloride) was 0.6880 mg. For the same compound, the “Lambda_z, Arithmetic Mean (CV %)” value ([4]; breast milk, single oral 150 mg solriamfetol tablet, N = 6) was 0.1446 (18.8) 1/h, the “t1/2, Arithmetic Mean (CV %)” value [4, 6] was 4.954 (21.4) h and the “tmax, Median (min, max)” value [4, 6] was 1.12 h. For the same compound, the “Daily Infant Dose, Geometric Mean” value [4, 7] was 0.5856 mg, the “Relative Infant Dose, Geometric Mean” value [4, 7] was 4.030% and the “Daily Infant Dose, Arithmetic Mean (CV %)” value [4, 8] was 0.6927 (63.5) mg. For the same compound, the “Relative Infant Dose, Arithmetic Mean (CV %)” value [4, 8] was 4.602 (60.6) %, the “Daily Infant Dose, Arithmetic Mean (CV %)” value [4, 9] was 0.6927 mg and the “Relative Infant Dose, Arithmetic Mean (CV %)” value [4, 9] was 4.602%. For the same compound, the “average amount that would be passed to the infant” value ([4]; estimated, over 24 hours, single oral 150 mg) was 0.59 mg, the “share of the total amount excreted in breast milk over 72 hours” value ([4]; excreted by 8 hours) was “approximately 78%” and the “share of the total amount excreted in breast milk over 72 hours” value ([4]; excreted by 24 hours) was about 98%. It also gave a Kp ([4]; AUC in breast milk divided by AUC in plasma, single oral 150 mg, N = 6, read-out: Milk:Plasma Ratio, Geometric Mean) of 2.05, a Kp ([4]; breast milk vs plasma, single oral 150 mg, read-out: solriamfetol exposure/concentrations (Cmax, AUCs) in breast milk relative to plasma) of about 2 and an AUC(0-inf) ([4]; breast milk, breast milk, single oral 150 mg solriamfetol tablet, N = 6, read-out: AUC0-inf, Geometric Mean) of 12900 ng·h/mL. The AUC(0-t) ([4]; breast milk, breast milk, single oral 150 mg solriamfetol tablet, N = 6, read-out: AUC0-t, Arithmetic Mean (CV %)) was 13700 ng·h/mL, the AUC(0-t) ([4]; breast milk, breast milk, single oral 150 mg solriamfetol tablet, N = 6, read-out: AUC0-t, Geometric Mean) was 12800 ng·h/mL and the Cmax ([4]; breast milk, breast milk, single oral 150 mg solriamfetol tablet, N = 6, read-out: Cmax, Arithmetic Mean (CV %)) was 2070 ng/mL. For the same compound, the Cmax ([4]; breast milk, breast milk, single oral 150 mg solriamfetol tablet, N = 6, read-out: Cmax, Geometric Mean) was 1860 ng/mL, the half-life ([4]; breast milk, breast milk, single oral 150 mg solriamfetol tablet, N = 6, read-out: t1/2, Arithmetic Mean (CV %) (converted)) was about 5 h and the half-life ([4]; breast milk, breast milk, single oral 150 mg solriamfetol tablet, N = 6, read-out: t1/2, Geometric Mean (converted)) was 4.87 h. The Tmax ([4]; breast milk, breast milk, single oral 150 mg solriamfetol tablet, N = 6, read-out: tmax, Median (min, max)) was about 1.1 h, the AUC(0-inf) ([4]; breast milk, breast milk, single oral 150 mg solriamfetol tablet, healthy postpartum women N = 6, read-out: AUC0-inf, Arithmetic Mean (CV %)) was 13800 ng·h/mL and the half-life ([4]; breast milk, breast milk, single oral 150 mg, read-out: t1/2 (approximate) (converted)) was about 5 h. For the same compound, the Tmax ([4]; breast milk, breast milk, single oral 150 mg, read-out: tmax range) was 1 to 3 h, the daily infant dose ([4]; further analysis, based on nominal infant weight of 6 kg, maternal single oral 150 mg) was 0.112 mg/kg and the “Arithmetic mean±SD amount excreted in breast milk” value [4, 10] was 0.6880 ± 0.4672 mg. For the same compound, the “cumulative median amount excreted in breast milk” value [4, 10] was 0.67 mg.
